The target of one series is T1, NaV1.5 (Homo sapiens, UniProt Q14524).
T1 construct: expression vector containing the full-length cDNA coding for the desired human sodium channel α-subunit; expressed in transfected cells; host or cells: HEK-293
In words: Patch voltage clamp electrophysiology assay (EP), NaV1.5 in HEK-293 cells. The note with it: HEK-293, β1 coexpressed, held at -60 mV (inactivated state). The series is classed as cell-based. From the text: (§1) Electrophysiological Assay (EP) (In Vitro Assay)
(§2) Patch voltage clamp electrophysiology allows for the direct measurement and quantification of block of voltage-gated sodium channels (NaV's), and allows the determination of the time- and voltage-dependence of block which has been interpreted as differential binding to the resting, open, and inactivated states of the sodium channel (Hille, B., Journal of General Physiology (1977), 69: 497-515).
(§3) The following patch voltage clamp electrophysiology studies were performed on representative compounds of the invention using human embryonic kidney cells (HEK), permanently transfected with an expression vector containing the full-length cDNA coding for the desired human sodium channel α-subunit, grown in culture media containing 10% FBS, 1% PSG, and 0.5 mg/mL G418 at 37° C. with 5% CO2. […] NaV1.7 and NaV1.5 cDNAs (NM_002977 and AC137587; SCN5A, respectively) were stably expressed in HEK-293 cells. The β1 subunit was coexpressed in both the NaV1.7 and NaV1.5 cell lines.
(§4) Sodium currents were measured using the patch clamp technique in the whole-cell configuration using either a PatchXpress automated voltage clamp or manually using an Axopatch 200B (Axon Instruments) or Model 2400 (A-M systems) amplifier. The manual voltage clamp protocol was as follows: Borosilicate glass micropipettes were fire-polished to a tip diameter yielding a resistance of 2-4 Mohms in the working solutions. The pipette was filled with a solution comprised of: 5 mM NaCl, 10 mM CsCl, 120 mM CsF, 0.1 mM CaCl2, 2 mM MgCl2, 10 mM HEPES, 10 mM EGTA; and adjusted to pH 7.2 with CsOH. The external solution had the following composition: 140 mM NaCl, 5 mM KCl, 2 mM CaCl2, 1 mM MgCl2, 10 mM HEPES; and adjusted to pH 7.4 with NaOH. In some studies, the external sodium was reduced by equimolar replacement with choline. Osmolarity in the CsF internal and NaCl external solutions was adjusted to 300 mOsm/kg and 310 mOsm/kg with glucose, respectively. All recordings were performed at ambient temperature in a bath chamber with a volume of 150 μL. Control sodium currents were measured in 0.5% DMSO. Controls and representative compounds of the invention were applied to the recording chamber through a 4-pinch or 8-pinch valve bath perfusion system manufactured by ALA Scientific Instruments.
(§5) Currents were recorded at 40 kHz sampling frequency, filtered at […], and stored using a Digidata-1322A analogue/digital interface with the pClamp software (Axon Instruments). Series resistance compensation was applied (60-80%). […] All statistics in this study are given as mean±SD.
(§6) The membrane potential was maintained at a voltage where inactivation of the channel is complete (which was −60 mV for both NaV1.7 and NaV1.5). The voltage is then stepped back to a very negative (Vhold=[…]) voltage for 20 ms and then a test pulse is applied to quantify the compound block. The 20 ms brief repolarization was long enough for compound-free channels to completely recover from fast inactivation, but the compound-bound channels recovered more slowly such that negligible recovery could occur during this interval. The percent decrease in sodium current following wash-on of compound was taken as the percent block of sodium channels.

In a further series the target is T2, hNav1.7 (Homo sapiens, UniProt Q15858).
T2 construct: expressed in transfected cells
The series can be described thus: Tritiated sulfonamide competitive binding to membranes from cells expressing hNav1.7 and the β1 subunit (LBA). The note with it: competition with 100 pM [3H]compound, 18 h, room temperature; read-out: Nav1.7 (LBA). How it is done: Tritiated Sulfonamide Binding to Membranes Isolated from Cells that Heterologously Express hNav1.7 and the β1 Subunit
Preparation of membranes containing recombinantly expressed sodium channels: Frozen recombinant cell pellets were thawed on ice and diluted to 4 times the cell pellet weight with ice cold 50 mM Tris HCl, pH 7.4 buffer. The cell suspensions were homogenized on ice using a motorized glass dounce homogenizer. Homogenates were further diluted 8.4 times with ice cold 50 mM Tris HCl, pH 7.4 buffer and then centrifuged at 200×g at 4° C. for 15 min. The supernatants were collected and centrifuged at 10000×g at 4° C. for 50 min. The pellets were then re-suspended in 100 mM NaCl, 20 mM Tris HCl, pH 7.4 buffer containing 1% v/v protease inhibitors (Calbiochem) and re-homogenized on ice. The homogenized membranes were then processed through a syringe equipped with a 26 gauge needle. Protein concentrations were determined by Bradford Assay and the membranes were stored at −80° C.
Saturation experiments. A competitive NaV1.7 inhibitor having a methyl group was tritiated. Three tritiums were incorporated in place of methyl hydrogens to generate [^3H]compound. Binding of this radioligand was preformed in 5 mL borosilicate glass test tubes at room temperature. Binding was initiated by adding membranes to increasing concentrations of [^3H]compound in 100 mM NaCl, 20 mM Tris HCl, pH 7.4 buffer containing 0.01% w/v bovine serum albumin (BSA) for 18 h. Non-specific binding was determined in the presence of 1 μM unlabelled compound. After 18 h, the reactants were filtered through GF/C glass fiber filters presoaked in 0.5% w/v polyethylene imine. Filters were washed with 15 mL ice cold 100 mM NaCl, 20 mM Tris HCl, pH 7.4 buffer containing 0.25% BSA to separate bound from free ligand. [^3H]compound bound to filters was quantified by liquid scintillation counting.
Binding reactions were performed in 96-well polypropylene plates at room temperature for 18 h. In 360 μL, membranes were incubated with 100 pM [^3H]compound and increasing concentrations of Test Compound. Non-specific binding was defined in the presence of 1 μM unlabelled compound. Reactions were transferred and filtered through 96-well glass fiber/C filter plates presoaked with 0.5% polyethylene imine. The filtered reactions were washed 5 times with 200 μL ice cold buffer containing 0.25% BSA. Bound radioactivity was determined by liquid scintillation counting.
Data Analysis: For saturation experiments, non-specific binding was subtracted from total binding to provide specific binding and these values were recalculated in terms of pmol ligand bound per mg protein. Saturation curves were constructed and dissociation constants were calculated using the single site ligand binding model: Beq=(Bmax*X)/(X+Kd), where Beq is the amount of ligand bound at equilibrium, Bmax is the maximum receptor density, Kd is the dissociation constant for the ligand, and X is the free ligand concentration. For competition studies percent inhibition was determined and IC50 values were calculated using a 4 parameter logistic model (% inhibition=(A+((B−A)/(1+((x/C)^D)))) using XLfit, where A and B are the maximal and minimum inhibition respectively, C is the IC50 concentration and D is the (Hill) slope.

The target in the next series is T3, NaV1.7 (Homo sapiens, UniProt Q15858).
T3 construct: expression vector containing the full-length cDNA coding for the desired human sodium channel α-subunit; expressed in transfected cells; host or cells: HEK-293
The series can be described thus: Patch voltage clamp electrophysiology assay (EP), NaV1.7 in HEK-293 cells. The series is classed as cell-based. The note with it: HEK-293, β1 coexpressed, held at -60 mV (inactivated state).
Text: as §1, §2, §3, §4, §5, §6

pIC50: −log10 of the molar value. Structures can show the parent of a compound that is named as a salt.

T1 sequence (Q14524 whole entry): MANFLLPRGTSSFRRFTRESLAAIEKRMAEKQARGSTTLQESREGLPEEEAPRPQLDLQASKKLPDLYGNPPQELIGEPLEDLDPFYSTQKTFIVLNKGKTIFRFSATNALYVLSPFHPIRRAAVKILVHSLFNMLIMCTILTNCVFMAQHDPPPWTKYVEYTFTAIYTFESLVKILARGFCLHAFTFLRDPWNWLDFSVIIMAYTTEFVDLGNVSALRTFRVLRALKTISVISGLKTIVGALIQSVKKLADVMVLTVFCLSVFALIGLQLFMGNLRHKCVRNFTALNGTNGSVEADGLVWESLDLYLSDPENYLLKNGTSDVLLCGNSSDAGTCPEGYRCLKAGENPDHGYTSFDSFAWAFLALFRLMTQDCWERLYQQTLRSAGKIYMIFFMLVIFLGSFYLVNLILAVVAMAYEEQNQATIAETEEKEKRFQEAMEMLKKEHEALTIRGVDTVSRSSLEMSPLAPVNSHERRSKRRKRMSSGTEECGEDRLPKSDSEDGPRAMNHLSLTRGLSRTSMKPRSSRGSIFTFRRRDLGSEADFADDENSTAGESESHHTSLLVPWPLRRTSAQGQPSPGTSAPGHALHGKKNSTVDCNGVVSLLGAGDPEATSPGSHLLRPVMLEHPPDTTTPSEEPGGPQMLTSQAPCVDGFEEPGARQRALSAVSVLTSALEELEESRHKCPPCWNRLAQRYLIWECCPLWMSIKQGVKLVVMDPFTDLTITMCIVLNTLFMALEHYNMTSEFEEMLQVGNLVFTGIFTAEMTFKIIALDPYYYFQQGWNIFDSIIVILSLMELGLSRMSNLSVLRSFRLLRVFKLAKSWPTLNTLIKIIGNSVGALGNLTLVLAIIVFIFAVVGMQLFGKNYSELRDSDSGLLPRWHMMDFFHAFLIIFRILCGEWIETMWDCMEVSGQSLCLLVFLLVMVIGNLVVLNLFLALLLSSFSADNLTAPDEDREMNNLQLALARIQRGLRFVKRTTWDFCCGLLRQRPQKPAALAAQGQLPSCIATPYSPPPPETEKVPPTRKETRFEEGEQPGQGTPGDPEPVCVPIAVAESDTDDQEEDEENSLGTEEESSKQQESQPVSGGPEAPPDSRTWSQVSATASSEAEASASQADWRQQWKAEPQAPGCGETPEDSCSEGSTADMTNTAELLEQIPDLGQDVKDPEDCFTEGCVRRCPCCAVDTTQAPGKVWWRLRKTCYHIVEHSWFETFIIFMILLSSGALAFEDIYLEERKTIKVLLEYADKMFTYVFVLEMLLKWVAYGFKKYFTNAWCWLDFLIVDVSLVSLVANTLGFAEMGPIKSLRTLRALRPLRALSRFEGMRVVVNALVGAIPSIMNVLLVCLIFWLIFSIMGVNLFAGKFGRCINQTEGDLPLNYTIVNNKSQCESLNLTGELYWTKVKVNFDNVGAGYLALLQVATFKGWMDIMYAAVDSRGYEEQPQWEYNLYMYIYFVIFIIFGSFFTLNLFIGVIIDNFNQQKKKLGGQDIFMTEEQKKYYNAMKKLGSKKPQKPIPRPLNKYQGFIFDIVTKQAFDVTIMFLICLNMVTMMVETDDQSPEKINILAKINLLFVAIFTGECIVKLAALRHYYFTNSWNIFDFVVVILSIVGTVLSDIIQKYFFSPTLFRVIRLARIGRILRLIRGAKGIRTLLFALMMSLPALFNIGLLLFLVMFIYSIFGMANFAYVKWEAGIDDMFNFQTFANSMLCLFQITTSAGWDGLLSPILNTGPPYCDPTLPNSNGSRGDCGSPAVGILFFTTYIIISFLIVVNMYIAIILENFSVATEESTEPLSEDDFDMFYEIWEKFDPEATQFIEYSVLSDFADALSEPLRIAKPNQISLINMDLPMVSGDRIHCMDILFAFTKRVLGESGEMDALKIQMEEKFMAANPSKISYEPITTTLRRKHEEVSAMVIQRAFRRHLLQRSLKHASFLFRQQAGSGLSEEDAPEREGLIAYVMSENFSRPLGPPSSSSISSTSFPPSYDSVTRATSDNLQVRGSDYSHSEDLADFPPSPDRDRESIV
T3 sequence (Q15858 1-1977 isoform Q15858-3): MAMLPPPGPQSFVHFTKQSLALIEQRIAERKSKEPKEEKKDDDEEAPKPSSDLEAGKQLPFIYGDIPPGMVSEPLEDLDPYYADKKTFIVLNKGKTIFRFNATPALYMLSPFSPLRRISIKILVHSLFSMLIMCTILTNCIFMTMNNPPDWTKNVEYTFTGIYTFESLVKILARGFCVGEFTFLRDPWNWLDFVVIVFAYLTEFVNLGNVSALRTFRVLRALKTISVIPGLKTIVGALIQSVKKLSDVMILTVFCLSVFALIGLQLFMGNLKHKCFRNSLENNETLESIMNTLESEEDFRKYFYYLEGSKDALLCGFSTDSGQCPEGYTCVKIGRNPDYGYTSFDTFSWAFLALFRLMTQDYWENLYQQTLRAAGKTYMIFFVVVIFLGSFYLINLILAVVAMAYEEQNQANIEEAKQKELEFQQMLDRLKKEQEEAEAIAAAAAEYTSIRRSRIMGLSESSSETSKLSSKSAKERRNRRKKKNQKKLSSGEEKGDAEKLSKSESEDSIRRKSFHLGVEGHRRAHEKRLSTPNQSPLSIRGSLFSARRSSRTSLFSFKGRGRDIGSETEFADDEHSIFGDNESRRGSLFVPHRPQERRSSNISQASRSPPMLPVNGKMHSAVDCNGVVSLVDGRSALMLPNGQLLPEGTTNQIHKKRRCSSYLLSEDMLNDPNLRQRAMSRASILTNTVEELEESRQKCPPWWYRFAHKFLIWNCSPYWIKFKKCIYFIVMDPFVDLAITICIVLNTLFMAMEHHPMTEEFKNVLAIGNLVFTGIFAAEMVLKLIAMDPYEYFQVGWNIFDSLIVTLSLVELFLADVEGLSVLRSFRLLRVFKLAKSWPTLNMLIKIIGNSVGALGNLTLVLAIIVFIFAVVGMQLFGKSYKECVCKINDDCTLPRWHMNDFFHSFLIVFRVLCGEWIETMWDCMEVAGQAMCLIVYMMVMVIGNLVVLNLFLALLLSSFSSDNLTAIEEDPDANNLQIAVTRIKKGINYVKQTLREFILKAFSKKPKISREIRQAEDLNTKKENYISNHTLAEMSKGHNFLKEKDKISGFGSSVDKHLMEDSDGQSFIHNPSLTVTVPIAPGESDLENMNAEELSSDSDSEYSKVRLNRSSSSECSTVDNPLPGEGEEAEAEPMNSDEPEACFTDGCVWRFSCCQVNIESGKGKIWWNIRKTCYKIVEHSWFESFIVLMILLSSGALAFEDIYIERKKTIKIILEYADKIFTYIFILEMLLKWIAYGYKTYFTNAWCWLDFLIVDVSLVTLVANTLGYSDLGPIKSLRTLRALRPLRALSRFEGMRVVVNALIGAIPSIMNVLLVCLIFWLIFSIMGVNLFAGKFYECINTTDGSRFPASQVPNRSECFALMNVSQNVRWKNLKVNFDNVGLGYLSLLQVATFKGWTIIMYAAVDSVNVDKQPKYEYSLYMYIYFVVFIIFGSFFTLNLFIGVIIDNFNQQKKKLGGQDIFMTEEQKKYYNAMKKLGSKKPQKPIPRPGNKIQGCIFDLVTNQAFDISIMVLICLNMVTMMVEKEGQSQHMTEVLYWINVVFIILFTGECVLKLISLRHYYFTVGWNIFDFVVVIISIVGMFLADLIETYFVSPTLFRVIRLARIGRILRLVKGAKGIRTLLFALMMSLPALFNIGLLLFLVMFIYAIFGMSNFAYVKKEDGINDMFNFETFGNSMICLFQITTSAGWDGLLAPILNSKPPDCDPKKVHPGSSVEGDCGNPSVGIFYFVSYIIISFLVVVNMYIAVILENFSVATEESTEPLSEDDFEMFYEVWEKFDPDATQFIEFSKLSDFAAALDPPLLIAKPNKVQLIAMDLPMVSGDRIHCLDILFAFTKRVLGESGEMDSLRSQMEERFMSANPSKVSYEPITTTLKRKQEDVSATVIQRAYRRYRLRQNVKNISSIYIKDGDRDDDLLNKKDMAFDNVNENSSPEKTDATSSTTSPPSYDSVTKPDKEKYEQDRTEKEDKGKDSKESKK
T3 sequence (Q07699 19-218 partner): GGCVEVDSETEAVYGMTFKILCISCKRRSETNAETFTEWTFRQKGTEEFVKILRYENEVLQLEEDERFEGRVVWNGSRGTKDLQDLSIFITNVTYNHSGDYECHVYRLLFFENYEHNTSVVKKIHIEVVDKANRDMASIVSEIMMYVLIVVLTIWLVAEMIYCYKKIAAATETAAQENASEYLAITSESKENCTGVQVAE
T2 sequence (Q15858 1-1977 isoform Q15858-3): as the sequence (Q15858 1-1977 isoform Q15858-3) above
T2 sequence (Q07699 19-218 partner): as the sequence (Q07699 19-218 partner) above

For the compound `Cc1nn(C2CCN(Cc3cc(Cl)cc(Cl)c3)CC2)c2cc(F)c(C(=O)NS(=O)(=O)C3CC3)cc12` [Example 6, N-(cyclopropylsulfonyl)-1-(1-(3,5-dichlorobenzyl)piperidin-4-yl)-6-fluoro-3-methyl-1H-indazole-5-carboxamide 2,2,2-trifluoroacetate], the pIC50 against NaV1.5 is 5.15; at hNav1.7, 7.85; against NaV1.7, 7.14.
The corresponding values for `Cc1nn([C@@H]2CCN([C@@H](C)c3cc(Cl)cc(Cl)c3)C2)c2cc(F)c(C(=O)NS(C)(=O)=O)cc12` [Example 18, 1-((R)-1-((S)-1-(3,5-dichlorophenyl)ethyl)pyrrolidin-3-yl)-6-fluoro-3-methyl-N-(methylsulfonyl)-1H-indazole-5-carboxamide, trifluoroacetic acid salt] are 4.77, 7.40 and 6.82.
As for `Cc1nn(C2CCN(Cc3cc(Cl)cc(OC(F)(F)F)c3)CC2)c2cc(F)c(C(=O)NS(C)(=O)=O)cc12` [Example 4, 1-(1-(3-chloro-5-(trifluoromethoxy)benzyl)piperidin-4-yl)-6-fluoro-3-methyl-N-(methylsulfonyl)-1H-indazole-5-carboxamide 2,2,2-trifluoroacetate], the pIC50 on NaV1.5 was 4.59; at hNav1.7, 7.62; on NaV1.7 it was 6.38.
For `Cc1nn(CC23CC4CC(CC(C4)C2)C3)c2cc(F)c(C(=O)N[S@TB3](=O)(=O)N3CCC3)cc12` [Example 41, 1-(((1s,3s)-adamantan-1-yl)methyl)-N-(azetidin-1-ylsulfonyl)-6-fluoro-3-methyl-1H-indazole-5-carboxamide], the pIC50 is not above 4.52 at NaV1.5 (human, pH 7.4); 6.52 at hNav1.7; 5.47 against NaV1.7.
The corresponding values for `Cc1nn(C2CCCCC2)c2cc(F)c(C(=O)NS(=O)(=O)N3CCC3)cc12` [Example 37, N-(azetidin-1-ylsulfonyl)-1-cyclohexyl-6-fluoro-3-methyl-1H-indazole-5-carboxamide] are not above 4.52, 6.31 and 5.44.
Consider `Cc1nn([C@@H]2CCN([C@H](C)c3cc(Cl)cc(Cl)c3)C2)c2cc(F)c(C(=O)NS(=O)(=O)C3CC3)cc12` [Example 17, N-(cyclopropylsulfonyl)-1-((R)-1-((R)-1-(3,5-dichlorophenyl)ethyl)pyrrolidin-3-yl)-6-fluoro-3-methyl-1H-indazole-5-carboxamide 2,2,2-trifluoroacetate], for which the pIC50 is 6.06 against NaV1.5, 8.22 on hNav1.7 and 7.35 at NaV1.7.
Take `Cc1nn([C@@H]2CCN(Cc3ccc(Cl)cc3C(F)(F)F)C2)c2cc(F)c(C(=O)NS(=O)(=O)C3CC3)cc12` [Example 20, (R)-1-(1-(4-chloro-2-(trifluoromethyl)benzyl)pyrrolidin-3-yl)-N-(cyclopropylsulfonyl)-6-fluoro-3-methyl-1H-indazole-5-carboxamide, trifluoroacetic acid salt]: the pIC50 against NaV1.5 was 6.24; on hNav1.7, 8.00; at NaV1.7, 7.21.
With `Cc1nn(C2CCN([C@H](C)c3cc(Cl)cc(Cl)c3)CC2)c2cc(F)c(C(=O)NS(=O)(=O)C3CC3)cc12` [Example 9, (R)-N-(cyclopropylsulfonyl)-1-(1-(1-(3,5-dichlorophenyl)ethyl)piperidin-4-yl)-6-fluoro-3-methyl-1H-indazole-5-carboxamide], the pIC50 is 5.08 at NaV1.5, 8.22 on hNav1.7 and 7.34 at NaV1.7.
`Cc1nn(C2CCCCC2)c2cc(F)c(C(=O)NS(C)(=O)=O)cc12` [Example 38, 1-cyclohexyl-6-fluoro-3-methyl-N-(methylsulfonyl)-1H-indazole-5-carboxamide]: the pIC50 at NaV1.5 (human, pH 7.4) is not above 4.52; on hNav1.7 it was 6.00; against NaV1.7 it was 4.96.
Take `Cc1nn(C2CCN(Cc3cc(C(F)(F)F)cc(Cl)c3F)CC2)c2cc(F)c(C(=O)NS(C)(=O)=O)cc12` [Example 1, 1-(1-(3-chloro-2-fluoro-5-(trifluoromethyl)benzyl)piperidin-4-yl)-6-fluoro-3-methyl-N-(methylsulfonyl)-1H-indazole-5-carboxamide 2,2,2-trifluoroacetate]: the results for the pIC50 against NaV1.5, on hNav1.7 and against NaV1.7 were 4.66, 7.47 and 6.17, respectively.
As for `Cc1nn(C2CN(C(c3ccccc3)c3ccccc3)C2)c2cc(F)c(C(=O)NS(C)(=O)=O)cc12` [Example 24, 1-(1-benzhydrylazetidin-3-yl)-6-fluoro-3-methyl-N-(methylsulfonyl)-1H-indazole-5-carboxamide], the pIC50 at NaV1.5 is 5.07; on hNav1.7, 7.32; against NaV1.7, 7.06.
`Cc1nn([C@@H]2CCN(Cc3cc(Cl)cc(OC(F)(F)F)c3)C2)c2cc(F)c(C(=O)NS(=O)(=O)C3CC3)cc12` [Example 11, (R)-1-(1-(3-chloro-5-(trifluoromethoxy)benzyl)pyrrolidin-3-yl)-N-(cyclopropylsulfonyl)-6-fluoro-3-methyl-1H-indazole-5-carboxamide 2,2,2-trifluoroacetate]: the figures for the pIC50 at NaV1.5, on hNav1.7 and on NaV1.7 were 6.10, 7.89 and 7.64, respectively.
Consider `Cc1nn(C23CC4CC(CC(C4)C2)C3)c2cc(F)c(C(=O)NS(=O)(=O)N3CCC3)cc12` [Example 35, 1-((3s,5s,7s)-adamantan-1-yl)-N-(azetidin-1-ylsulfonyl)-6-fluoro-3-methyl-1H-indazole-5-carboxamide], for which the pIC50 against NaV1.5 (human, pH 7.4) was not above 4.52; at hNav1.7, 6.74; on NaV1.7 it was 6.00.

Values taken from US10899732B2, “Substituted benzamides useful as sodium channel blockers” (GENENTECH, INC., priority 2015, dated 2021).
